“Also recorded” adds a separate entry of the source.
Tests used:
[1] = Stability of P11 in human GI microsomes; assay type: in vitro ADME; details: Figure 3A
[2] = Full pharmacokinetic evaluation of P11 in EL4 tumor-bearing mice (intact prodrug and released DON); assay type: in vivo, C57BL/6/CES1–/– mice; details: P11 2.9 mg/kg SC, analyte intact P11
Experimental: (§1) C57BL/6/CES1^–/– mice were obtained as a gift from the United States Army Medical Research Institute of Chemical Defense, Maryland, USA; breeding was performed in the Johns Hopkins animal facility and was conducted according to protocols reviewed and approved by the Johns Hopkins Institutional Animal Care and Use Committee in compliance with the Association for Assessment and Accreditation of Laboratory Animal Care International (AAALAC) and the Public Health Service Policy on the Humane Care and Use of Laboratory Animals (PHS Policy). Male and female C57BL/6 mice (weighing between 25 and 30 g) 6–8 weeks of age were used for the study. The animals were maintained on a 12 h light–dark cycle with ad libitum access to food (certified laboratory food: Teklad 18% Protein Extruded Rodent Diet) and water. EL4 mouse lymphoma cells were obtained as a gift from the laboratory of Dr. Jonathan Powell (Johns Hopkins University, Baltimore, MD) and maintained in RPMI 1640 medium 1X (Corning, cat. no. 10-040-CV) with 10% (v/v) fetal bovine serum (Corning, cat. no. 35-011-CV), 1% (v/v) antimycotic/antibiotic (Corning, cat. no. 30-004-CI), 2 mM L-glutamine (Corning, cat. no. 25-005-CI), and 10 mM HEPES (Corning, cat. no. 25-060-CI) in a 5% (v/v) CO2 and 95% (v/v) air incubator prior to subcutaneous (SC) injection (1 × 10^6 cells in 0.2 mL of phosphate-buffered saline) on the flank of each mouse.
Pharmacokinetic study was performed after tumors grew to a mean volume of around 400 mm^3. […]
Plasma concentration levels of P11 were measured by precipitating 20 μL of plasma sample with 100 μL of methanol containing internal standard (losartan, 0.5 μM), followed by vortex mixing for 30 s and then centrifugation at 16000g for 5 min at 4 °C. […]
Chromatographic analysis was performed on an Agilent ultra-high-performance LC system coupled with an Agilent 6520 QTOF mass spectrometer (Agilent, Santa Clara, CA). […] P11 concentrations were determined by the AUC of high-resolution extracted chromatograms of P11 divided by internal standard (460.2554 m/z/423.1695 m/z). […]

[3] = Single time point pharmacokinetic screening, released DON in plasma and tumor of EL4 tumor-bearing mice; assay type: in vivo, C57BL/6/CES1–/– mice; details: 1 mg/kg DON equivalent SC; 30 min
Experimental: as §1, with “mouse. […]” for “mouse.”

[4] = Chemical (aqueous) stability in buffer pH 7.4; assay type: physicochemical; details: 10 μM; pH 7.4 PBS; 37 °C; 24 h; HRMS/LCMS
Experimental: The aqueous solubility was determined as previously reported with minor modifications.[48] Briefly, an excess amount of P11 or DRP-104 was added to PBS buffer (pH 7.4) and sonicated for 1 h at 37 °C to ensure saturation. After 1 h, the solution was filtered (0.45 μm PTFE), and the filtrate was diluted appropriately, and the concentration of each analyte was determined via LC–MS. Chemical stabilities of DRP-104 and P11 were done as previously described[18] with modifications. For chemical stability, prodrugs were spiked (10 μM) in buffer at pH 7.4 and incubated at 37 °C for 24 h. Prodrug disappearance was monitored using the developed HRMS methods.

[5] = Metabolic stability in mouse intestinal homogenate (GIh)
Experimental: Briefly, intestinal tissue was homogenized over ice via probe sonication with 1:9 tissue to potassium phosphate buffer (0.1 M) conditions. Prodrugs were spiked in plasma or tissue homogenate at 10 μM final concentration with 0.2% DMSO v/v and incubated in triplicate for 0 and 60 min time points. At each time point, 100 μL of the sample was precipitated with 300 μL of methanol containing internal standard (IS; losartan, 0.5 μM). Precipitated samples were vortexed (30 s) and centrifuged at 10000g for 10 min at 4 °C. After centrifugation, 100 μL of supernatant was aliquoted and submitted for analysis. Prodrug disappearance over time was monitored by liquid chromatography–mass spectrometry (LC–MS) through peak area ratios between the analyte and internal standard.
Chromatographic analysis was performed on a Dionex ultra-high-performance LC system coupled with a Q Exactive Focus Orbitrap mass spectrometer (Thermo Fisher Scientific Inc., Waltham, MA). Separation was achieved using an Agilent Eclipse Plus column (100 × 2.1 mm i.d.; maintained at 35 °C) packed with a 1.8 μm C18 stationary phase. The mobile phase used was composed of 0.1% formic acid in acetonitrile and 0.1% formic acid in water with gradient elution, starting with 2.5% organic phase (from 0 to 0.25 min) and linearly increasing to 99% (from 0.25 to 1.25 min) and re-equilibrating to 2.5% by 4 min. The total run time for each analyte was 5 min. Pumps were operated at a flow rate of 0.4 mL/min. The mass spectrometer controlled by Xcalibur software 4.0.27.13 (Thermo Scientific) was operated with an HESI ion source in positive ionization mode for all compounds. Compounds were identified in the full-scan mode with m/z ranging from 75 to 1125.

- stability in human GI microsomes [1]: confirmed
- intestinal tissue levels of intact prodrug (below the limit of quantification) ([2]; intestinal tissue): < 0.01 nmol/mL
- AUC of intact prodrug, tumor ([2]; tumor): 0.092 nmol·h/g
- AUC at 6 h ([2]; both sexes, C57BL/6/CES1–/–, mouse, plasma): 0.15 µM·h
- remaining at 1 h, 10 µM ([5]; CES1–/–, mouse, intestinal homogenate): 78 ± 2%
- Intestinal homogenate ([5]; supplementary CSV, unit not given, matches Table 1 % remaining at 1 h, in %): 78 ± 2
SMILES: CN(C)CC(=O)N[C@@H](Cc1ccccc1)C(=O)N[C@@H](CCC(=O)C=[N+]=[N-])C(=O)OC(C)(C)C [Prodrug P11, tert-Butyl (S)-6-Diazo-2-((S)-2-(2-(dimethylamino)acetamido)-3-phenylpropanamido)-5-oxohexanoate]
- preferential DON tumor versus plasma delivery [3]: maintained the preferential DON tumor versus plasma delivery
- chemical stability in buffer [4]: remained intact without any degradation; also recorded: no degradation

Source: publication PMC10683027, “Discovery of tert-Butyl Ester Based 6-Diazo-5-oxo-L-norleucine Prodrugs for Enhanced Metabolic Stability and Tumor Delivery” (Journal of Medicinal Chemistry, 2023)
